Results: patent US11925616B2, “Compositions comprising urolithin compounds” (Amazentis SA, priority 2015, dated 2024)

Assays:
[1] = Particle size determinations for urolithin A; type: physicochemical; details: for D10 / D50 / D90: Malvern Particle Size analyzer, before and after micronization
Experimental: The particle size of urolithin A was reduced in a controlled manner using an MC50 Spiral Jetmill, using filtered nitrogen, with a feed rate of 240 g/hr, a Venturi pressure of 12 bar, and a mill pressure of 12 bar. Different particle size distributions of urolithin A were determined on a Malvern Particle Size analyzer (Malvern Instruments, UK). Three samples were evaluated in depth.

in vivo = experiment: in vivo; parameters: species or system male Sprague-Dawley rats; details: male, Sprague-Dawley, rat, po, 25 mg/kg
Experimental: The solutions for gavage were prepared as follows: 35 mg of urolithin A powder was diluted in 7 ml of 15% DMSO, 0.5% methyl cellulose/0.25% Tween 80 in water, resulting in a 5 mg/ml fine suspension. The DMSO was obtained from BDH, methyl cellulose was obtained from Sigma, and Tween 80 was obtained from Sigma-Aldrich.
Blood was collected from the rats by jugular vein cannulation at different time points, and urolithin A was quantified in the plasma to determine its pharmacokinetic profile following oral gavage of Sample #1, Sample #2, and Sample #3. The study was repeated on three rats for each sample. […]

myotubes = details: in vitro; cited from earlier work
[2] = micronized urolithin used in the formulations of Example 1

| Structure (SMILES) | D10 [1] [μm] | D50 [1] [μm] | D90 [1] [μm] | Cmax (in vivo) [ng/mL] | Relative Cmax (% of non-micronized Cmax) (in vivo) [%] | Relative bioavailability (% AUC of non-micronized urolithin A) (in vivo) [%] | AUC (in vivo; AUC) [ng·h/mL] | Tmax (in vivo; Tmax (h)) [min] | AUC (in vivo) [ng·h/mL] | Tmax (in vivo) [min] | fold increase in the Cmax in comparison to Sample #1 (in vivo) [fold] | increase in the AUC in comparison to Sample #1 (in vivo) [%] | relative increase in the Cmax in comparison to Sample #1 (in vivo) [%] | D10, actual particle size [1, 2] [μm] | D50, actual particle size [1, 2] [μm] | D90, actual particle size [1, 2] [μm] | effect on mean diameter of myotubes (myotubes) |
| --- | --- | --- | --- | --- | --- | --- | --- | --- | --- | --- | --- | --- | --- | --- | --- | --- | --- |
| O=c1oc2cc(O)ccc2c2ccc(O)cc12 [Sample #1, Urolithin A] | 1.03 | 53.4 | 365 | 17.1 | 100 | 100 | 75.1 | 15 | – | – | – | – | – | – | – | – | – |
| O=c1oc2cc(O)ccc2c2ccc(O)cc12 [Sample #2, Urolithin A] | 0.272 | 2.17 | 6.84 | 37 | 216 | 128 | – | – | 96.2 | 19.8 | 2.16 | 28 | 116 | – | – | – | – |
| O=c1oc2cc(O)ccc2c2ccc(O)cc12 [Sample #3, Urolithin A] | 0.597 | 5.67 | 40.1 | 17.4 | 102 | 126 | – | – | 94.8 | 30 | – | 26 | – | – | – | – | – |
| O=c1oc2cc(O)ccc2c2ccc(O)cc12 [Urolithin A] | – | – | – | – | – | – | – | – | – | – | – | – | – | 0.7 | 3.9 | 11.5 | not seen |
| O=c1oc2cc(O)ccc2c2ccccc12 [Urolithin B] | – | – | – | – | – | – | – | – | – | – | – | – | – | – | – | – | increased the mean diameter of myotubes |
